Test results published in ChEMBL document CHEMBL1201862, “PubChem BioAssay data set” (2004).
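48-hour exposure; five concentrations; linearly interpolated endpoints. At the GI50, growth is halved.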 Calls of active or inactive are those of the source. No stated cut-off is given here; in the data, active = GI50 up to about 1.1 µM and inactive = higher.

Experiments:
Test in all cases: growth of human tumour cells (NCI), 48 h
LOX IMVI = tested on: LOX IMVI
UACC-62 = tested on: UACC-62
DMS-273 = tested on: DMS-273
KM-20L2 = tested on: KM-20L2
SNB-78 = tested on: SNB-78
SK-MEL-2 = tested on: SK-MEL-2
ACHN = tested on: ACHN
SN12C = tested on: SN12C
OVCAR-3 = tested on: OVCAR-3
DMS-114 = tested on: DMS-114
A498 = tested on: A498
COLO 205 = tested on: COLO 205
HT-29 = tested on: HT-29
HCT-15 = tested on: HCT-15
OVCAR-5 = tested on: OVCAR-5
SNB-75 = tested on: SNB-75
SF-295 = tested on: SF-295
DLD-1 = tested on: DLD-1
SK-OV-3 = tested on: SK-OV-3
K562 = tested on: K562
Malme-3M = tested on: Malme-3M
U-251 = tested on: U-251
LXFL 529 = tested on: LXFL 529
SW-620 = tested on: SW-620
MOLT-4 = tested on: MOLT-4
IGROV-1 = tested on: IGROV-1
A549 = tested on: A549
HCT-116 = tested on: HCT-116
RXF 631 = tested on: RXF 631
HCC 2998 = tested on: HCC 2998
NCI-H522 = tested on: NCI-H522
NCI-H460 = tested on: NCI-H460
KM12 = tested on: KM12
SF-539 = tested on: SF-539
NCI-H226 = tested on: NCI-H226
M14 = tested on: M14
786-0 = tested on: 786-0
EKVX = tested on: EKVX
CCRF-CEM = tested on: CCRF-CEM
XF498 = tested on: XF498
CAKI-1 = tested on: CAKI-1
SNB-19 = tested on: SNB-19
HOP-62 = tested on: HOP-62
SK-MEL-5 = tested on: SK-MEL-5
RXF 393 = tested on: RXF 393
OVCAR-8 = tested on: OVCAR-8
UO-31 = tested on: UO-31
TK-10 = tested on: TK-10
UACC-257 = tested on: UACC-257
RPMI-8226 = tested on: RPMI-8226
SF-268 = tested on: SF-268

With `O=c1cc(O)cc2n1CCC2` the GI50 (LOX IMVI) was > 100 µM (inactive), the GI50 (UACC-62) was > 100 µM (inactive) and the GI50 (DMS-273) was > 100 µM (inactive). The GI50 (KM-20L2) was > 100 µM (inactive), the GI50 (SNB-78) was > 100 µM (inactive) and the GI50 (SK-MEL-2) was > 100 µM (inactive). The GI50 (ACHN) was > 100 µM (inactive), the GI50 (SN12C) was > 100 µM (inactive) and the GI50 (OVCAR-3) was > 100 µM (inactive). For the same molecule, the GI50 (DMS-114) was > 100 µM (inactive), the GI50 (A498) was > 100 µM (inactive) and the GI50 (COLO 205) was > 100 µM (inactive). The GI50 (HT-29) was > 100 µM (inactive), the GI50 (HCT-15) was over 100 µM and the GI50 (OVCAR-5) was > 100 µM (inactive). For the same molecule, the GI50 (SNB-75) was > 100 µM (inactive), the GI50 (SF-295) was > 100 µM (inactive) and the GI50 (DLD-1) was > 100 µM (inactive). For the same molecule, the GI50 (SK-OV-3) was > 100 µM (inactive), the GI50 (K562) was > 100 µM (inactive) and the GI50 (Malme-3M) was > 100 µM (inactive). For the same molecule, the GI50 (U-251) was > 100 µM (inactive), the GI50 (LXFL 529) was > 100 µM (inactive) and the GI50 (SW-620) was > 100 µM (inactive). For the same molecule, the GI50 (MOLT-4) was > 100 µM (inactive), the GI50 (IGROV-1) was > 100 µM (inactive) and the GI50 (A549) was > 100 µM (inactive). For the same molecule, the GI50 (HCT-116) was > 100 µM (inactive), the GI50 (RXF 631) was > 100 µM (inactive) and the GI50 (HCC 2998) was > 100 µM (inactive). The GI50 (NCI-H522) was > 100 µM (inactive), the GI50 (NCI-H460) was > 100 µM (inactive) and the GI50 (KM12) was > 100 µM (inactive). For the same molecule, the GI50 (SF-539) was > 100 µM (inactive), the GI50 (NCI-H226) was > 100 µM (inactive) and the GI50 (M14) was > 100 µM (inactive). The GI50 (786-0) was > 100 µM (inactive), the GI50 (EKVX) was > 100 µM (inactive) and the GI50 (CCRF-CEM) was > 100 µM (inactive). For the same molecule, the GI50 (XF498) was > 100 µM (inactive), the GI50 (CAKI-1) was > 100 µM (inactive) and the GI50 (SNB-19) was > 100 µM (inactive). The GI50 (HOP-62) was > 100 µM (inactive), the GI50 (SK-MEL-5) was > 100 µM (inactive) and the GI50 (RXF 393) was > 100 µM (inactive). For the same molecule, the GI50 (OVCAR-8) was > 100 µM (inactive), the GI50 (UO-31) was > 100 µM (inactive) and the GI50 (TK-10) was > 100 µM (inactive). For the same molecule, the GI50 (UACC-257) was > 100 µM (inactive), the GI50 (RPMI-8226) was > 100 µM (inactive) and the GI50 (SF-268) was > 100 µM (inactive).
